“And” between values parts separate entries of the source, which are not always exact repeats. Equal entries are not always repeated. “Also recorded” adds a separate entry of the source. Where two headings read alike, the source gives them in different places. One block for each molecule: values may come before it.
What was measured:
[1] = tested on: potassium stimulated release of [^3 H]ACh; settings: entorhinal cortex of rat brain; cited from earlier work
[2] = tested on: AII receptors (rat adrenal cortical membranes); assay: AII binding to rat adrenal cortical membranes with and without DTT pretreatment; settings: for effect of DTT on the inhibition of AII binding: 5 mM DTT, DuP 753 at 3×10^-9 to 3×10^-6 M
From the text: (§1) 102: 685-696, except the above binding assay conditions were used.

[3] = tested on: AII receptors (rat adrenal gland); settings: DuP 753 10^-5 M, XB-655 10^-6 M
Experimental: Fresh tissue was frozen on powdered dry ice and stored at -70° C. until used. Sections were cut at 15 microns and thaw mounted onto gelatin subbed slides. […] Slides were placed under X-ray film (Kodak XAR-5) and exposed for 11/2 days before processing the film to produce the film autoradiograms. The slides were then fixed with paraformaldehyde vapor at 80° C. for two hours, dried under air, delipidated, and dipped in emulsion (Kodak NTB-2). The coated slides were exposed for 4-5 weeks, developed with Kodak D-19 and counter-stained with hemotoxylin-eosin to view the histology.

[4] = tested on: retention of a passive avoidance (PA) response; settings: injected into the dorsal neostriatum, rats; cited from earlier work
AII-1 receptor [5] = assay: [125I]AII radioligand binding, rat adrenal cortical microsomes, AII-1 (DuP 753-sensitive) sites; settings: for preference for one AII receptor subtype: AII-1 vs. AII-2
Experimental: (§2) The same procedures and conditions were used for adrenal medullary microsomes. […] After 60 min of incubation, the reaction was terminated by addition of cold assay buffer. The bound and free radioactivity were rapidly separated through glass-fiber filters, and the trapped radioactivity was determined by gamma counting.

AII-2 receptor [6] = target: T1, AII-2 receptor (Rattus norvegicus, UniProt P35351); assay: [125I]AII radioligand binding, rat adrenal cortical microsomes, AII-2 (DuP 753-insensitive) sites; settings: for selective binding to AII-2 receptors: AII-2 vs. AII-1
T1 sequence (P35351 1-363): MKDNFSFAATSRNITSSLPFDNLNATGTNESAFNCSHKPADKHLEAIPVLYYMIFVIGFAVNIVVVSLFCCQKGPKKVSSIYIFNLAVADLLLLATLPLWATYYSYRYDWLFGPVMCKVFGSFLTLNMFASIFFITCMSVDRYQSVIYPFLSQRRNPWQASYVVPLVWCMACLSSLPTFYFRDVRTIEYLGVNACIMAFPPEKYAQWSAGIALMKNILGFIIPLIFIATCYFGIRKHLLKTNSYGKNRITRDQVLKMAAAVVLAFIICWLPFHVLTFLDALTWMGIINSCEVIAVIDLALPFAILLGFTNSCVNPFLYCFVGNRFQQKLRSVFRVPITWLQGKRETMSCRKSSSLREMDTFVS
Experimental: as §2

[7] = tested on: AII receptors (rat adrenal medullary microsomes); assay: [125I]AII specific binding, rat adrenal medulla / medullary microsomes; settings: below 1×10^-5 M; rat adrenal medullary microsomes
Experimental: as §2

[8] = target: T2, AII receptors (rat adrenal medullary microsomes) (Rattus norvegicus, UniProt P35351); assay: as above
T2 construct: from tissue; host or cells: rat adrenal medulla, microsomes
T2 sequence (P35351 1-363): T1 sequence (P35351 1-363)
Experimental: as §2

[9] = tested on: AII receptors (rat adrenal cortical microsomes); assay: [125I]AII total specific binding, rat adrenal cortex / cortical microsomes
Experimental: as §2

PA task = assay: renin-induced amnesia in a PA task (applicants); type: in vivo; settings: IVT
avoidance learning = settings: renin IVT, cited from earlier work; for avoidance learning: captopril IVT prior to the renin injection
[10] = tested on: light/dark habituation performance; settings: cited from earlier work
[11] = tested on: memory of previously learned tasks; settings: in vivo; cited from earlier work
AII receptor subtype B = settings: cited from earlier work
AII-1 receptor [12] = assay: DTT inactivation of the AII-1 receptor; type: binding, rat
From the text: as §1

AII-2 receptor [13] = target: T1, AII-2 receptor; assay: DTT inactivation of the AII-2 receptor; type: binding; parameters: AII-1 and AII-2 receptor subtypes in rat adrenal cortex microsomes; from tissue; host or cells: rat adrenal cortex (microsomes)
From the text: as §1

AII receptor subtype A = settings: cited from earlier work
[14] = in the presence of 10^-5 M XB-655, rat adrenal cortex microsomes, read-out: IC50 AII-1

Molecule: Angiotensin II (DRVYIHPF; Angiotensin-2; UniProt P01019 25-32, looked up) [AII, octapeptide hormone which is a component of the renin-angiotensin system]
basal levels of ACh release [1]: without effects on basal levels
potassium-stimulated release of ACh [1]: reduced potassium-stimulated release of ACh
enhancement of inhibitory potency by DTT ([2]; presence vs. absence of DTT): 2.5 fold
IC50 ([2]; read-out: IC50 in the absence of DTT, absence of DTT): 1 nM
labeling of adrenal cortex by [125I]AII [3]: potently inhibited the labeling
labeling of adrenal medulla by [125I]AII [3]: potently inhibited the labeling
retention of a PA response [4]: disruption in retention of a PA response
preference for one AII receptor subtype (AII-1 receptor [5]): no preference

selective binding to AII-2 receptors (AII-2 receptor [6]): bind selectively to AII-2 receptors
IC50 (AII-1 receptor [5]; [14]): 12000 nM
Molecule: COC(=O)C1Cc2c(ncn2Cc2ccc(NC(=O)c3ccccc3C(=O)O)c(C)c2)CN1C(=O)C(c1ccccc1)c1ccccc1 (centres unmarked) [Example 2, Methyl-1-[4-amido-(2'-carboxyphenyl)-3-methylphenyl]methyl-5-diphenylacetyl-4,5,6,7-tetrahydro-1H-imidazo (4,5-C)-pyridine-6-carboxylate]

Molecule: lysine-8-vasopressin
retention of a PA response [4]: no effect

Molecule: CCCCc1nc(Cl)c(CO)n1Cc1ccc(-c2ccccc2-c2nn[nH]n2)cc1 [DuP 753]
effect of DTT on the inhibition of AII binding [2]: essentially abolished
labeling of adrenal cortex by [125I]AII [3]: significantly reduced
labeling of adrenal medulla by [125I]AII [3]: not appreciably affected
IC50 (AII-1 receptor [5]; [14]): 12 nM
inhibition of binding below 1×10^-5 M [7]: 10%
inhibition of AII binding (in words) ([8]; rat adrenal medulla): essentially inactive
inhibition of the total AII binding [9]: 80%

Molecule: C[C@H](CS)C(=O)N1CCC[C@H]1C(=O)O [captopril]
amnesia in a PA task (PA task): prevented
avoidance learning (avoidance learning): prevented the renin-induced avoidance disruption
anticholinergic scopolamine-induced disruption of performance ([10]; daily treatment): prevented
rate of acquisition of light/dark habituation performance ([10]; subchronic treatment): increased the rate of acquisition

Molecule: NCCCC[C@H](OP(=O)(O)CCCCc1ccccc1)C(=O)N1CCC[C@H]1C(=O)O [SQ 29852]
anticholinergic effect on performance [11]: ameliorate, at least in part
memory of previously learned tasks [11]: protective effects on memory

inactivation of AII-2 receptor by DTT (AII-2 receptor [13]): resistant to DTT inactivation
Molecule: O[C@H](CS)[C@H](O)CS (racemic) [DTT, dithiothreitol]
effect of DTT on binding to subtype B (AII receptor subtype B): inhibit binding to subtype B
inactivation of AII-1 receptor by DTT (AII-1 receptor [12]): particularly sensitive to inactivation; also recorded: inactivated by DTT
effect of DTT on binding to subtype A (AII receptor subtype A): enhance binding to subtype A

Molecule: [1-sarcosine, 8-threonine]angiotensin II
antagonism of the AII effect on ACh release [1]: antagonized

effect of DTT on the inhibition of AII binding [2]: not significantly altered
IC50 (AII-2 receptor [6]; IC50 AII-2, in the presence of 10^-5 M DuP 753, rat adrenal cortex microsomes): ~1.3 nM and 1.3 nM
preference for one AII receptor subtype (AII-1 receptor [5]): no preference
IC50 (AII-1 receptor [5]; [14]): 1.7 nM
IC50 (AII-1 receptor [5]; read-out: IC50, DuP 753-sensitive site, in the presence of 10^-5 M XB-655, unit inferred): ~1.7 nM
IC50 ([8]; rat adrenal medulla / medullary microsomes): 0.4 nM
Molecule: CNCC(=O)N[C@@H](CCCN=C(N)N)C(=O)N[C@H](C(=O)N[C@@H](Cc1ccc(O)cc1)C(=O)N[C@H](C(=O)N[C@@H](Cc1cnc[nH]1)C(=O)N1CCC[C@H]1C(=O)N[C@@H](C)C(=O)O)C(C)C)C(C)C [Saralasin]

selective binding to AII-2 receptors (AII-2 receptor [6]): bind selectively to AII-2 receptors
IC50 (AII-1 receptor [5]; [14]): 300000 nM
Molecule: O=C(O)C1Cc2c(ncn2Cc2ccc(-c3ccccc3-c3nnn[nH]3)cc2)CN1C(=O)C(c1ccccc1)c1ccccc1 (centres unmarked) [Example 27]

Molecule: NC(=O)[C@@H]1CCCN1C(=O)[C@H](Cc1cnc[nH]1)NC(=O)[C@@H]1CCC(=O)N1 [thyrotropin releasing hormone]
retention of a PA response [4]: no effect

B1: renin: an enzyme involved in endogenous AII biosynthesis (protein, UniProt P00797 67-406, looked up)
Renin: LTLGNTTSSVILTNYMDTQYYGEIGIGTPPQTFKVVFDTGSSNVWVPSSKCSRLYTACVYHKLFDASDSSSYKHNGTELTLRYSTGTVSGFLSQDIITVGGITVTQMFGEVTEMPALPFMLAEFDGVVGMGFIEQAIGRVTPIFDNIISQGVLKEDVFSFYYNRDSENSQSLGGQIVLGGSDPQHYEGNFHYINLIKTGVWQIQMKGVSVGSSTLLCEDGCLALVDTGASYISGSTSSIEKLMEALGAKKRLFDYVVKCNEGPTLPDISFHLGGKEYTLTSADYVFQESYSSKKLCTLAIHAMDIPPPTGPTWALGATFIRKFYTEFDRRNNRIGFALAR
amnesia in a PA task (PA task): dose-related amnesia
avoidance learning (avoidance learning): disruption of avoidance learning
AII level in cerebrospinal fluid (CSF) (avoidance learning; increase from 40): about 5000 fmol per mL

Reference: patent US5091390A, “Treatment of CNS disorders with 4,5,6,7-tetrahydro-1H-imidazo (4,5-)-pyridines and analogs” (E. I. du Pont de Nemours and Company, priority 1990, dated 1992)
